Assay results: patent US11083725B2 (priority 2014, dated 2021)

Tested on: NHBE cells
Assay: Biolog metabolic array: substrate use by NHBE cells with or without CA09 infection
Type: cell-based, human
Conditions: for Substrate use, 590 nm absorbance normalized to zero hour, 0 hr: Biolog PMM2, 0 hr; for Substrate use, 590 nm absorbance normalized to zero hour, 1 hr: Biolog PMM2, 1 hr; for Substrate use, 590 nm absorbance normalized to zero hour, 5 hr: Biolog PMM2, 5 hr; for Substrate use, 590 nm absorbance normalized to zero hour, 7 hr: Biolog PMM2, 7 hr
[1] = Control (uninfected) NHBE cells
[2] = Virus (CA09-infected, MOI 1) NHBE cells
[3] = Virus: CA09-infected NHBE cells, MOI 1, Biolog PMM2
[4] = Virus (CA09-infected NHBE cells, MOI 1)
[5] = Virus (CA09, MOI 1) infected NHBE cells

| Structure (SMILES) | 590 nm absorbance normalized to zero hour (substrate use), 1 hr [1] | 590 nm absorbance normalized to zero hour (substrate use), 2 hr [1] | 590 nm absorbance normalized to zero hour (substrate use), 3 hr [1] | 590 nm absorbance normalized to zero hour (substrate use), 4 hr [1] | 590 nm absorbance normalized to zero hour (substrate use), 6 hr [1] | 590 nm absorbance normalized to zero hour (substrate use), 8 hr [1] | 590 nm absorbance normalized to zero hour (substrate use), 9 hr [1] | 590 nm absorbance normalized to zero hour (substrate use), 10 hr [1] | 590 nm absorbance normalized to zero hour (substrate use), 11 hr [1] | Substrate use, 590 nm absorbance normalized to zero hour, 1 hr [1] | Substrate use, 590 nm absorbance normalized to zero hour, 5 hr [1] | Substrate use, 590 nm absorbance normalized to zero hour, 7 hr [1] | 590 nm absorbance normalized to zero hour (substrate use), 1 hr [3] | 590 nm absorbance normalized to zero hour (substrate use), 2 hr [3] | 590 nm absorbance normalized to zero hour (substrate use), 3 hr [3] | 590 nm absorbance normalized to zero hour (substrate use), 4 hr [3] | 590 nm absorbance normalized to zero hour (substrate use), 5 hr [3] | 590 nm absorbance normalized to zero hour (substrate use), 6 hr [3] | 590 nm absorbance normalized to zero hour (substrate use), 7 hr [3] | 590 nm absorbance normalized to zero hour (substrate use), 8 hr [3] | other results |
| --- | --- | --- | --- | --- | --- | --- | --- | --- | --- | --- | --- | --- | --- | --- | --- | --- | --- | --- | --- | --- | --- |
| O=C(O)C[C@H](O)C(=O)O [L-Malic Acid] | 1.11 | 1.27 | 1.37 | 1.35 | 0.72 | 1.35 | 1.39 | 1.37 | 1.43 | 1.11 | 1.41 | 1.33 | 1.48 | 1.19 | 1.27 | 3.32 | 1.59 | 1.42 | 2.93 | 3.48 | 590 nm absorbance normalized to zero hour (substrate use), 0 hr [1]: 1.00; Substrate use, 590 nm absorbance normalized to zero hour, 0 hr [1]: 1.00; 590 nm absorbance normalized to zero hour (substrate use), 0 hr [2]: 1.00; 590 nm absorbance normalized to zero hour (substrate use), 1 hr [2]: 1.48; 590 nm absorbance normalized to zero hour (substrate use), 2 hr [2]: 1.19; 590 nm absorbance normalized to zero hour (substrate use), 3 hr [2]: 1.27; 590 nm absorbance normalized to zero hour (substrate use), 4 hr [2]: 3.32; 590 nm absorbance normalized to zero hour (substrate use), 5 hr [2]: 1.59; 590 nm absorbance normalized to zero hour (substrate use), 6 hr [2]: 1.42; 590 nm absorbance normalized to zero hour (substrate use), 7 hr [2]: 2.93; 590 nm absorbance normalized to zero hour (substrate use), 8 hr [2]: 3.48; 590 nm absorbance normalized to zero hour (substrate use), 9 hr [2]: 1.72; 590 nm absorbance normalized to zero hour (substrate use), 10 hr [2]: 2.20; 590 nm absorbance normalized to zero hour (substrate use), 11 hr [2]: 2.05; 590 nm absorbance normalized to zero hour (substrate use), 0 hr [3]: 1.00; 590 nm absorbance normalized to zero hour (substrate use), 9 hr [3]: 1.72; 590 nm absorbance normalized to zero hour (substrate use), 10 hr [3]: 2.20; 590 nm absorbance normalized to zero hour (substrate use), 11 hr [3]: 2.05 |
| C[C@H](O)[C@H](O)[C@@H](O)[C@@H](O)C=O [L-Rhamnose] | 1.28 | 1.52 | 1.49 | 1.66 | 2.53 | 2.01 | 2.71 | 2.22 | 2.36 | 1.28 | 2.12 | 1.91 | 0.16 | 0.22 | 0.25 | 0.28 | 0.32 | 0.34 | 0.36 | 0.38 | 590 nm absorbance normalized to zero hour (substrate use), 1 hr [4]: 0.16; 590 nm absorbance normalized to zero hour (substrate use), 2 hr [4]: 0.22; 590 nm absorbance normalized to zero hour (substrate use), 3 hr [4]: 0.25; 590 nm absorbance normalized to zero hour (substrate use), 4 hr [4]: 0.28; 590 nm absorbance normalized to zero hour (substrate use), 5 hr [4]: 0.32; 590 nm absorbance normalized to zero hour (substrate use), 6 hr [4]: 0.34; 590 nm absorbance normalized to zero hour (substrate use), 7 hr [4]: 0.36; 590 nm absorbance normalized to zero hour (substrate use), 8 hr [4]: 0.38; 590 nm absorbance normalized to zero hour (substrate use), 9 hr [4]: 0.41; 590 nm absorbance normalized to zero hour (substrate use), 10 hr [4]: 0.43; 590 nm absorbance normalized to zero hour (substrate use), 11 hr [4]: 0.46; 590 nm absorbance normalized to zero hour (substrate use), 9 hr [3]: 0.41; 590 nm absorbance normalized to zero hour (substrate use), 10 hr [3]: 0.43; 590 nm absorbance normalized to zero hour (substrate use), 11 hr [3]: 0.46 |
| O=C(CO)[C@@H](O)[C@H](O)[C@@H](O)CO [L-Sorbose] | 1.57 | 2.05 | 2.28 | 2.38 | 4.12 | 2.81 | 2.80 | 3.02 | 2.98 | 1.57 | 2.79 | 2.84 | 0.18 | 0.23 | 0.26 | 0.28 | 0.32 | 0.34 | 0.37 | 0.38 | 590 nm absorbance normalized to zero hour (substrate use), 0 hr [1]: 1.00; Substrate use, 590 nm absorbance normalized to zero hour, 0 hr [1]: 1.00; 590 nm absorbance normalized to zero hour (substrate use), 0 hr [4]: 1.00; 590 nm absorbance normalized to zero hour (substrate use), 1 hr [4]: 0.18; 590 nm absorbance normalized to zero hour (substrate use), 2 hr [4]: 0.23; 590 nm absorbance normalized to zero hour (substrate use), 3 hr [4]: 0.26; 590 nm absorbance normalized to zero hour (substrate use), 4 hr [4]: 0.28; 590 nm absorbance normalized to zero hour (substrate use), 5 hr [4]: 0.32; 590 nm absorbance normalized to zero hour (substrate use), 6 hr [4]: 0.34; 590 nm absorbance normalized to zero hour (substrate use), 7 hr [4]: 0.37; 590 nm absorbance normalized to zero hour (substrate use), 8 hr [4]: 0.38; 590 nm absorbance normalized to zero hour (substrate use), 9 hr [4]: 0.41; 590 nm absorbance normalized to zero hour (substrate use), 10 hr [4]: 0.41; 590 nm absorbance normalized to zero hour (substrate use), 11 hr [4]: 0.48; 590 nm absorbance normalized to zero hour (substrate use), 0 hr [3]: 1.00; 590 nm absorbance normalized to zero hour (substrate use), 9 hr [3]: 0.41; 590 nm absorbance normalized to zero hour (substrate use), 10 hr [3]: 0.41; 590 nm absorbance normalized to zero hour (substrate use), 11 hr [3]: 0.48 |
| OC[C@@H](O)[C@@H](O[C@@H]1O[C@H](CO)[C@H](O)[C@H](O)[C@H]1O)[C@H](O)[C@@H](O)CO [Lactitol] | 0.19 | 0.26 | 0.31 | 0.33 | 0.40 | 0.47 | 0.50 | 0.55 | 0.62 | 0.19 | 0.39 | 0.44 | – | – | – | – | – | – | – | – | Substrate use, 590 nm absorbance normalized to zero hour, 1 hr [5]: 1.61; Substrate use, 590 nm absorbance normalized to zero hour, 5 hr [5]: 3.16; Substrate use, 590 nm absorbance normalized to zero hour, 7 hr [5]: 3.55; 590 nm absorbance normalized to zero hour (substrate use), 1 hr [2]: 1.61; 590 nm absorbance normalized to zero hour (substrate use), 2 hr [2]: 2.20; 590 nm absorbance normalized to zero hour (substrate use), 3 hr [2]: 2.54; 590 nm absorbance normalized to zero hour (substrate use), 4 hr [2]: 2.73; 590 nm absorbance normalized to zero hour (substrate use), 6 hr [2]: 3.38; 590 nm absorbance normalized to zero hour (substrate use), 8 hr [2]: 3.76; 590 nm absorbance normalized to zero hour (substrate use), 9 hr [2]: 4.11; 590 nm absorbance normalized to zero hour (substrate use), 10 hr [2]: 4.31; 590 nm absorbance normalized to zero hour (substrate use), 11 hr [2]: 4.66 |
